According to ChEMBL document CHEMBL1201862, “PubChem BioAssay data set” (2004):
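Where inhibition never reached the appropriate level, the endpoint shown equals the highest concentration tested. Otherwise, values were interpolated linearly from a five-concentration, 48-hour dose response in 96-well plates. Abbreviation: GI50, concentration required for 50% inhibition of growth.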 The source made the active and inactive calls. Rule as the data show it: active = GI50 up to about 1.1 µM and inactive = higher.

Tests used:
Test in all cases: NCI anticancer screen, dose series, 48 h
[1] = system: HL-60
[2] = system: 786-0
[3] = system: SF-268
[4] = system: TK-10
[5] = system: K562
[6] = system: SK-MEL-28
[7] = system: CAKI-1
[8] = system: RPMI-8226
[9] = system: NCI-H23
[10] = system: SF-295
[11] = system: SW-620
[12] = system: IGROV-1
[13] = system: NCI-H522
[14] = system: A549
[15] = system: COLO 205
[16] = system: NCI-H226
[17] = system: HOP-62

Measured: GI50

COC(=O)c1cc(C(=O)OC)c(CC(=O)C(=O)NC2C3CC4CC(C3)CC2C4)nc1CC(=O)C(=O)NC1C2CC3CC(C2)CC1C3 (configuration not stated)
inactive: [1] > 100 µM | [2] > 100 µM | [3] > 100 µM | [4] > 100 µM | [5] > 100 µM | [6] > 100 µM | [7] > 100 µM | [8] > 100 µM | [9] > 100 µM | [10] > 100 µM | [11] > 100 µM | [12] > 100 µM | [13] > 100 µM | [14] > 100 µM | [15] > 100 µM | [16] > 100 µM | [17] > 100 µM

Cc1cc2c(C)n(Cc3ccc(Cl)cc3Cl)nc2c(C#N)c1C
inactive: [1] > 100 µM | [2] 13.6 µM | [3] 32.3 µM | [4] 23.7 µM | [5] > 100 µM | [6] 36 µM | [7] 41.8 µM | [8] 99.3 µM | [9] 41.7 µM | [10] 18.2 µM | [11] > 100 µM | [12] 41 µM | [13] 38.5 µM | [14] 28.2 µM | [15] > 95.5 µM | [16] > 42.2 µM | [17] 20 µM

Clc1cccc(C2SCc3nc4ccccc4n32)c1 (configuration not stated)
inactive: [1] 7.57 µM | [2] > 10 µM | [3] 28.8 µM | [4] 25.6 µM | [5] 14.9 µM | [6] 19.1 µM | [7] 27 µM | [8] 14.2 µM | [9] 18.3 µM | [10] 30.3 µM | [11] 32.9 µM | [12] 22.3 µM | [13] 10.4 µM | [14] 42.9 µM | [15] 4.79 µM | [16] 12.8 µM | [17] 20 µM

O=C(Nc1ccc(Br)cc1)C(=O)C(C(=O)c1ccc(Cl)c(Cl)c1)C1OC(=O)c2ccccc21 (configuration not stated)
inactive: [1] 17.2 µM | [2] 15 µM | [3] 4.99 µM | [4] 20.2 µM | [5] 12.5 µM | [6] 13.7 µM | [7] 14.4 µM | [8] 39.7 µM | [9] 13.9 µM | [10] 15.2 µM | [11] 14 µM | [12] 18.5 µM | [13] 18.3 µM | [14] 16.4 µM | [15] 16.4 µM | [16] 4.56 µM | [17] 15.2 µM

COC1(OC)CC2CCCCC2=C(C)N1S(=O)(=O)c1ccccc1 (configuration not stated)
inactive: [1] > 100 µM | [2] > 100 µM | [3] > 100 µM | [4] > 100 µM | [5] > 100 µM | [6] > 100 µM | [7] > 100 µM | [8] > 100 µM | [9] > 100 µM | [10] > 100 µM | [11] > 100 µM | [12] > 100 µM | [13] > 100 µM | [14] > 100 µM | [15] > 100 µM | [16] > 100 µM | [17] > 100 µM

COC(=O)/C=C(C)/C=C/C1OC(C)OCC1O (configuration not stated)
inactive: [1] > 100 µM | [2] > 100 µM | [3] > 100 µM | [4] > 100 µM | [5] > 100 µM | [7] > 100 µM | [8] > 100 µM | [9] > 100 µM | [10] > 100 µM | [11] > 100 µM | [12] > 100 µM | [13] > 100 µM | [14] > 100 µM | [15] > 100 µM | [16] > 100 µM | [17] > 100 µM

Nc1nc2c(ncn2Cc2ccccc2CCO)c(=O)[nH]1
inactive: [1] > 100 µM | [2] > 100 µM | [3] > 100 µM | [4] > 100 µM | [5] > 100 µM | [6] > 100 µM | [7] > 100 µM | [8] > 100 µM | [9] > 100 µM | [10] > 100 µM | [11] > 100 µM | [12] > 100 µM | [13] > 100 µM | [14] > 100 µM | [15] > 100 µM | [16] 41 µM | [17] > 100 µM

Cc1csc2nc(-c3ccncc3)cn12
inactive: [1] > 36.3 µM | [2] 15.8 µM | [3] > 69.7 µM | [4] > 100 µM | [5] > 44 µM | [6] > 100 µM | [7] > 100 µM | [8] > 45.1 µM | [9] > 100 µM | [10] > 100 µM | [11] > 21.1 µM | [12] > 100 µM | [13] > 82.2 µM | [14] > 100 µM | [15] > 45.5 µM | [16] > 100 µM | [17] > 100 µM

O=C1NC(c2ccc(O)cc2)C2CCC1C2 (configuration not stated)
inactive: [1] > 100 µM | [2] > 100 µM | [3] > 100 µM | [4] > 100 µM | [5] > 100 µM | [6] > 100 µM | [7] > 100 µM | [8] > 100 µM | [9] > 100 µM | [10] > 100 µM | [11] > 100 µM | [12] > 100 µM | [13] > 100 µM | [14] > 100 µM | [15] > 100 µM | [16] > 100 µM | [17] > 100 µM

N#Cc1cc([N+](=O)[O-])ccc1NC(=O)C(F)(F)F
inactive: [1] > 57.1 µM | [2] > 49.7 µM | [3] > 100 µM | [4] > 100 µM | [5] > 60.5 µM | [6] > 100 µM | [7] > 100 µM | [8] > 45.8 µM | [9] > 100 µM | [10] > 100 µM | [11] > 40.9 µM | [12] > 100 µM | [13] > 58.5 µM | [14] > 74.3 µM | [15] 20.7 µM | [16] > 88.7 µM | [17] > 100 µM

CCN(CC)c1ccc(/N=N/c2ccc(-c3nc4cccn(C)c-4n3)cc2)cc1
inactive: [1] 1.75 µM | [2] 4.09 µM | [3] 13.2 µM | [4] 27.9 µM | [5] 2.86 µM | [7] 16.6 µM | [8] 2.36 µM | [9] 11.4 µM | [10] 5.04 µM | [11] 7.36 µM | [12] 10.7 µM | [13] 7.11 µM | [14] 6.62 µM | [15] 14.3 µM | [16] 19.8 µM | [17] 10.4 µM

COC(=O)/C(=N/NC(C)(C)C)C(C(=O)C=C(C)C)C(=O)C(=O)Nc1ccc(Cl)cc1C (configuration not stated)
inactive: [1] > 100 µM | [2] > 100 µM | [3] > 100 µM | [4] > 100 µM | [5] > 100 µM | [6] > 100 µM | [7] > 100 µM | [8] > 100 µM | [9] > 100 µM | [10] > 100 µM | [11] > 100 µM | [12] > 100 µM | [13] > 100 µM | [14] > 100 µM | [15] > 100 µM | [16] 99.3 µM | [17] > 100 µM
